Laboratory results reported in patent publication US20240139149A1, “THERAPEUTIC USES OF UROLITHIN DERIVATIVES” (Vandria SA, priority 2022, published 2024).

Tested on: APTK-OVA tumors
Test: Adoptive transfer of UA-conditioned OT-1 T cells into Rag1−/− mice
Format: in vivo, mouse
Protocol: For adoptive cell transfer, purified splenic T cell from OT1 mice were isolated and activated using αCD3/αCD28 stimulation beads for 48 h. After magnetic bead removal, 1×10^6 T of activated T cell were intravenously injected into Rag1−/− recipients. To study survival of transferred T cells, stimulated OT-1 T cells were injected into mice without tumors. Subsequently, after 7 days, spleens were isolated and splenocytes were stained for the CD8+ subsets as described below. To understand antitumor immunity conferred by transferred OT-1 lymphocytes, cells were injected into mice carrying APTK-OVA tumors 10 days after subcutaneous organoid transplantation. Tumor growth was assessed as described above. Mice were kept under regular chow food for the T cell adoptive transfer experiment and sacrificed collectively when maximum tumor diameter extended 1.5 cm.
Tumors were minced and digested with Tumor & Tissue Dissociation Reagent (BD Horizon) for 30 min. The remaining organ pieces were filtered through a 70 µm cell strainer. Cells were then washed with PBS 1% BSA and 2 mM EDTA. Immune cells were enriched on a 30%/40%/75% Percoll gradient after a 1700 rpm 17 min centrifugation. Then, tumor immune filtrates or activated T cells were stained with Fixable Viability Dye-eF780 (65-0865-14; eBioscience), αCD45-FITC (30-F11; 11-0451-85; eBioscience), αCD11b-BV650 (M1/70; 56340; BD) α-CD11c-BV785 (HL3; 563735; BD), aLy6G-BV605 (53-6.7; 563005; BD), aLy6C-AF700 (HK1.4; 128024; Biolegend), aF4/80-PE (BM8; 12-4801-82, eBioscience), aPD-L1-PECy7 (MIH5; 25-5982-80, eBioscience); or with Fixable Viability Dye-eF780 (ebioscience), αCD45-BV786 (30-F11; 564225; BD), αCD4-BUV496 (GK1.5; 564667; BD), αCD8-BV605 (100744; Biolegend), aPD1-APC (J43; 17-9985-82; eBioscience), aTIM-3-PECy7 (RMT3-23; 119715; Biolegend), aCTLA4-PE (UC10-4B9; 106305; Biolegend) and aLag3-BV421 (C9B7W; 125221, Biolegend); or with Fixable Viability Dye-eF780 (eBioscience), αCD4-FITC (H129.19; 553650; BD), αCD8-APC (53-6.7; 17-0081-83; eBioscience), αCD44-AF400 (IM7; 103026; Biolegend), αCD62L-BV785 (MEL-14; 104440; Biolegend), αSca-1-PerCP-Cy5.5 (D7; 45-5981-82; eBioscience), αCD95-PE (Jo2; 554258; BD); or with Fixable Viability Dye-eF780 (eBioscience), αCD8-BV650 (53-6.7; 563234; BD), αCD4-BUV496 (GK1.5; 564667; BD), αCD127-APC (A7R34; 17-1271-82; eBioscience), αCD95-FITC (SA367H8;152605; Biolegend), αCD44-AF400 (IM7; 103026; Biolegend), αCD62L-BV785 (MEL-14; 104440; Biolegend), αSca-1-PerCP-Cy5.5 (D7; 45-5981-82; eBioscience) followed by intracellular staining of aTCF1-PE (S33-966; 564217; BD), or PGC-1α (sc-518025; D-5; santa cruz), or aCyclinD1 (MA5-28534, DCS-6; Invitrogen) with transcription factor buffer set kit (BD Biosciences). To study cytokine expression, tumor immune infiltrates were stimulated ex vivo with 20 ng/mL PMA and […] Ionomycin (Sigma) for 3 h in T cell activation medium with Brefeldin A (Biolegend). For T cell in vitro activation experiments over several days, Brefeldin A was added to the medium for the last 3 hours. Cells were then stained with Fixable Viability Dye-eF780 (eBioscience), αCD8-PeCy7 (53.6-7; 100722; Biolegend), αCD4-AF700 (GK1.5; 100429; Biolegend), and intracellular staining for cytokine assessment was performed with BD Cytofix/Cytoperm (BD) with 20 min fixation and overnight incubation with αGranzyme B-FITC (GB11; 515403; Biolegend), αIFNγ-PerCPCy5.5 (XMG1.2; 45-7311-82; eBioscience) and αTNFa-BV711 (MP6-XT22; 563944; BD). For flow cytometric analysis of mitochondria and lysosomes 500 μl of Mitotracker Red (200 nM; ThermoFisher) or Lysotracker Red DND-99 (75 nM; ThermoFisher) were applied followed by surface staining. To study changes in mitochondrial membrane potential, Mitoprobe TMRM kit (ThermoFisher) was used according to the manufacturer's instructions. Cell proliferation was assessed by CellTrace Violet (Invitrogen, C34557) at a concentration of […] according to manufacturer's instructions. […]

## O=c1oc2cc(O)ccc2c2ccc(O)cc12 [UA, Urolithin A]
UA-T cell transfer
  CD62L expression in CD8+ TIL: remained unchanged
  expression of CD44 in CD8+ TIL: lower expression
  number of TCF1HiCD8+ tumor infiltrating T cells: higher number
UA-conditioned vs control OT-I T cells
  suppression of APTK-OVA tumors: more substantial tumor suppression
UA-pretreated T cells
  Tim3HiPD1Hi terminally exhausted CD8+ T cells in the TME: less
